Assays:
GLR3.3 channel [1] = molecular target: T1, GLR3.3 channel (Arabidopsis thaliana, UniProt Q9C8E7); experiment: Whole-cell patch-clamp recording in HEK293 cells expressing GLR3.3; assay type: cell-based; design: expressed in transfected cells; host or cells: COS-7 (Ca2+ imaging) / HEK293 (patch clamp); conditions: HEK293 cells expressing GLR3.3 alone, free internal Ca2+ in pipette 1 μM, external Glu
T1 sequence (Q9C8E7 24-933): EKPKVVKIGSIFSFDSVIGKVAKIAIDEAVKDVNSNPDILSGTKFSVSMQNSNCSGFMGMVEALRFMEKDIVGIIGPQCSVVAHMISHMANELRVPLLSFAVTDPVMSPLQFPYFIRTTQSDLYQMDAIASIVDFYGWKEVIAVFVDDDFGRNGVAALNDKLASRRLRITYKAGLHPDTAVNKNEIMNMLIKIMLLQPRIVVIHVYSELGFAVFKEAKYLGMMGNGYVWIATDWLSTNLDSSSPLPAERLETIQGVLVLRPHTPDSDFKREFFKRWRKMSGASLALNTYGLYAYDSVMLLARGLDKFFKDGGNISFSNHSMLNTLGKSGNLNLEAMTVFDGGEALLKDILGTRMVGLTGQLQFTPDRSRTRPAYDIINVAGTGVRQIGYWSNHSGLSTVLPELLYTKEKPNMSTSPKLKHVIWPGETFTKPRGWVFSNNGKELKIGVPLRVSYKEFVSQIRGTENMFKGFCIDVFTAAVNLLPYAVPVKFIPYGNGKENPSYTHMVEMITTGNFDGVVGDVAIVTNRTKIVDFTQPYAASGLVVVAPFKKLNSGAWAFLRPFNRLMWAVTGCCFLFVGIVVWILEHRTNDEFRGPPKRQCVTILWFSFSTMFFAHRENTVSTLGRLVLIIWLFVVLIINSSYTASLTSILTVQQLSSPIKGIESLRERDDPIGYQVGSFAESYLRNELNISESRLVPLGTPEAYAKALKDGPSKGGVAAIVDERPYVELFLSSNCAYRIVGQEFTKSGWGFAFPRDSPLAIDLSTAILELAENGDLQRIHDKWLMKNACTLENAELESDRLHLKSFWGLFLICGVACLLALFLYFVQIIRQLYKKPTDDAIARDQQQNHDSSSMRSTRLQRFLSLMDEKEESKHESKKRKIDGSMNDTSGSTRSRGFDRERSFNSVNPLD
Procedure: The whole-cell patch-clamp recordings were performed on an Axopatch 200B patch-clamp configuration with a Digidata 1550 digitizer (Axon Instruments) as described previously. Clampex 10.7 and Clampfit 10.7 software (Axon Instruments) were used for data acquisition and analysis.
To record Ca^2+ currents across plasma membrane of HEK293 cells, the bath solution contained 100 mM Na-glutamate, 40 mM NaCl, 5 mM KCl, 2 mM MgCl2, 10 mM CaCl2, 10 mM HEPES, and 10 mM glucose (pH 7.5, adjusted with NaOH). The pipette solution with 0 nM free Ca^2+ contained 140 mM CsCl, 5 mM EGTA, and 10 mM HEPES (pH 7.5, adjusted with CsOH), while the pipette solution with 1 μM free Ca^2+ contained 140 mM CsCl, 5 mM EGTA, 4.85 mM CaCl2) and 10 mM HEPES (pH 7.5, adjusted with CsOH). Free Ca^2+ was calculated with Webmaxc Standard software (https://somapp.ucdmc.ucdavis.edu/pharmacology/bers/maxchelator/webmaxc/webmaxcS.htm). A ramp voltage protocol of 2-s duration from −180 mV to +20 mV (holding potential 0 mV) was applied 1 min after achieving a whole-cell configuration, and currents were recorded every 20 s, with 5 repeats in total for each cell. The five current traces were used for statistical analysis to produce average current-voltage curves.

OsGLR3.1 = molecular target: T2, OsGLR3.1 (Oryza sativa subsp. japonica, UniProt Q7XP59); experiment: Single-cell Ca2+ imaging in COS-7 cells expressing OsGLR3.1; assay type: cell-based; conditions: COS-7 cells expressing OsGLR3.1 alone, external Glu application
T2 construct: expressed in transfected cells; host or cells: COS-7
T2 sequence (Q7XP59 21-938): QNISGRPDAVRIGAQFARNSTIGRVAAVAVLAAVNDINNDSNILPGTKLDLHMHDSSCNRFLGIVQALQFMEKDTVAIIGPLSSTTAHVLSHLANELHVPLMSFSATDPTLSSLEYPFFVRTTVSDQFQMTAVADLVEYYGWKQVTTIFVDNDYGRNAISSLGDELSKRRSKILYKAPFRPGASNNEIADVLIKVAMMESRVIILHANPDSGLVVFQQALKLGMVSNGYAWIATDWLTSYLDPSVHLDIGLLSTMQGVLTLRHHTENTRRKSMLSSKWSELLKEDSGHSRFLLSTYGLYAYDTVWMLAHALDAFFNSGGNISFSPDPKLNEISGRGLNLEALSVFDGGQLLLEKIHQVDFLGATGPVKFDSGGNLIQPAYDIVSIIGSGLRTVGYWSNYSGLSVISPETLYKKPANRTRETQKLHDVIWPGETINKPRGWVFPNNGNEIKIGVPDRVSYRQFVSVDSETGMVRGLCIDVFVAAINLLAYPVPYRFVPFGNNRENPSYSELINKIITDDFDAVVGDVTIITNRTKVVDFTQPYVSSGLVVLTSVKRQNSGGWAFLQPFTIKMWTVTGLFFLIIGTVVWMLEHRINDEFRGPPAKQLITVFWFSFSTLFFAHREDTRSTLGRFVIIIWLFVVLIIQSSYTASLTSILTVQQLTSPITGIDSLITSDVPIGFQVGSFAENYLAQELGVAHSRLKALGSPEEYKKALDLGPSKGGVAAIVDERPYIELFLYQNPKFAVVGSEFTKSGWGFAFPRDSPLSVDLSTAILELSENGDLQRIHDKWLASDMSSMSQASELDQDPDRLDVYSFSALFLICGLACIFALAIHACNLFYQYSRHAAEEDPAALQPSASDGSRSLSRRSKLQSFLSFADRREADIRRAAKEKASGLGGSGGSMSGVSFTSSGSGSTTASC
Procedure: (§1) The full-length coding sequences were amplified from cDNA of Arabidopsis (GLR3.1, GLR3.3, and GLR3.6), B. oleracea (BoGLR3.3) or O. sativa (OsGLR3.1). The coding sequences of GLR3.3-CD2 and GLR3.3-T3 were generated through site-directed mutagenesis with GLR3.3 as template. All coding sequences respectively inserted into a dual-promoter vector pBudCE4.1 (Invitrogen) with coding sequence of GCaMP6s for co-expression in […] or COS-7 cells as previously described. Mammalian cells were cultured in DMEM supplemented with 10% FBS in a 5% CO2 incubator at 37° C. under controlled humidity, and transfected using a Lipofectamine 3000 Transfection Reagent kit (Invitrogen).
(§2) COS-7 cells expressing GCaMP6s together with various GLR proteins were monitored by a Zeiss AxioObserver ZI inverted microscope (Ivision 4.5 software) with 2-s intervals under a 20× objective as previously described. The standard solution for Ca^2+ imaging contained 120 mM NaCl, 3 mM KCl, 1 mM MgCl2, 1.2 mM NaHCO3, 10 mM glucose, 10 mM HEPES, pH 7.5. At 60 s after initiation of the imaging procedure, the bath was perfused using a peristaltic pump with the standard solution supplemented with 100 mM glutamate to elicit Ca^2+ entry through active channels.

BoGLR3.3 = experiment: Single-cell Ca2+ imaging in COS-7 cells expressing BoGLR3.3; assay type: cell-based, Brassica oleracea; conditions: COS-7 cells expressing BoGLR3.3 alone, external Glu application
Procedure: as §1, §2

GLR3.3 channel [2] = molecular target: T1, GLR3.3 channel; experiment: Single-cell Ca2+ imaging in COS-7 cells expressing GLR3.3; assay type: cell-based; design: expressed in transfected cells; host or cells: COS-7 (Ca2+ imaging); conditions: COS-7 cells expressing GLR3.3 alone, external Glu application (100 mM glutamate)
Procedure: as §1, §2

CaM7 = molecular target: T3, CaM7 (Arabidopsis thaliana, UniProt P59220); experiment: ITC (isothermal titration calorimetry) assay of CBD peptides with 6His-CaM7; assay type: binding; conditions: ratio of KD values
T3 construct: made in house; host or cells: Escherichia coli BL21 (DE3)
Procedure: ITC was carried out at 25° C. on a MicroCal iTC200 instrument (GE Healthcare). 250 μM of peptides were titrated against 20 μM of 6His-CaM7 proteins (purified by size-exclusion chromatography using Superdex 200 Increase 10/300 GL, GE Healthcare) in the reaction buffer (25 mM HEPES, 100 mM NaCl, pH 7.5) with addition of 1 mM Ca^2+ or 2 mM EGTA. Titrations were performed by an automated sequence of 20 injections spaced at 150-s intervals to ensure complete equilibration, and raw data were analyzed with Origin software (version 7.0) supplied with the instrument.

CaM binding affinity lower than that of wild type CBD (CaM7) | SMILES | Glu-induced currents (GLR3.3 channel [1]) | Glu-activated [Ca2+]cyt change (OsGLR3.1) | Glu-activated [Ca2+]cyt change (BoGLR3.3) | Glu-activated [Ca2+]cyt change (GLR3.3 channel [2])
– | N[C@@H](CCC(=O)O)C(=O)O [Glu, glutamate] | large inward currents | rapid [Ca^2+]cyt increases | rapid [Ca^2+]cyt increases | rapid [Ca^2+]cyt increases
approximately 10 fold | CC(C)C[C@H](NC(=O)[C@H](CO)NC(=O)[C@H](CC(C)C)NC(=O)[C@H](Cc1ccccc1)NC(=O)[C@H](CCCNC(=N)N)NC(=O)[C@H](CCC(N)=O)NC(=O)[C@H](CC(C)C)NC(=O)[C@H](CCCNC(=N)N)NC(=O)[C@@H](NC(=O)[C@H](CO)NC(=O)[C@H](CC(=O)O)NC(=O)[C@H](Cc1c[nH]cn1)NC(=O)[C@H](CC(N)=O)NC(=O)[C@H](CCC(N)=O)NC(=O)[C@H](CCC(N)=O)NC(=O)[C@H](CCC(N)=O)NC(=O)[C@@H](N)CC(=O)O)[C@@H](C)O)C(=O)O [mutated CBD peptide] | – | – | – | –

— patent US20250270584A1, “Gene editing to provide insect resistance in crops” (The Regents of the University of California, priority 2022, published 2025)
